Test results taken from patent publication US20150107993A1, “METHODS AND APPARATUSES FOR […] POLLUTION” (Transfert Plus, s.e.c., priority 2012, published 2015).

What was measured:
[1] = system: green algae Chlamydomonas reinhardtii (CC-125); assay: Algal fluorescence inhibition (F25m) measured with the microfluidic OLED/OPD test apparatus; assay type: cell-based; conditions: 1×10^6 cell/ml algal culture
Description: According to an experimental evaluation using the test apparatus, green algae Chlamydomonas reinhardtii (CC-125) was cultivated in 250 mL Erlenmeyer flasks in High Salt Medium (HSM) with the adjusted pH=6.8±0.1. The algae were grown at 25° C. under a light intensity of 100 μmol·m-2·s-1 provided by white-light neon lamps and a 16 h-light/8 h-dark cycle. Cells were maintained continuously in the mid-exponential growth phase (up to 4×10^6 cell/ml) before experiments. To measure the minimum density of algae that can be detected, successive dilutions of a 3×10^6 cell/ml algal culture were prepared in HSM. These solutions were dark adapted for 15 min before fluorescence measurement in order to reoxidize photosystem II reaction centers.
According to the experimental evaluation using the test apparatus, pollutant detection measurements, a 1×10^6 cell/ml green algal culture was used. […] Algal exposure to ethanol concentration used in this study (without DCMU) had no effect on the fluorescence measurements (data not shown). […]
It was noticed that the injection of the pollutant changes fluorescence kinetics. An increase in the fluorescence signal for the first 100 ms, proportional to the pollutant concentration was observed. DCMU induced this fluorescence increase because it blocks the electron transfer in PSII. […]

[2] = system: green algae Chlamydomonas reinhardtii (CC-125); assay: Algal fluorescence inhibition (Vj) measured with the commercial Handy-PEA fluorometer; assay type: cell-based; conditions: Handy-PEA commercial system, 1×10^6 cell/ml algal culture, same experimental conditions, read-out: concentration of DCMU inhibiting 50% of the algae photochemistry (EC50), evaluated with Vj
Description: According to the experimental evaluation using the test apparatus, pollutant detection measurements, a 1×10^6 cell/ml green algal culture was used. Different concentrations of Diuron or DCMU (3(3,4-dichlorophenyl)-1,1-dimethylurea from Aldrich) were prepared in pure ethanol. For each measurement, 30 μL of DCMU was mixed with 2 mL of algal solution. The mixtures were exposed for 30 min under a 100 μmol·m-2·s-1 light intensity, and then dark adapted for 15 min before being injected into the microfluidic chip with a syringe pump to fully fill a microfluidic chamber (around 10 μL). Algal exposure to ethanol concentration used in this study (without DCMU) had no effect on the fluorescence measurements (data not shown). Each measurement was replicated three times. […]
According to the experimental evaluation using the test apparatus, Handy-PEA fluorometer (Hansatech Ltd.) was used as the commercial available equipment to be compared with the microfluidic sensor. […] Fluorescence emission was detected for wavelengths over 700 nm.
According to the experimental evaluation using the test apparatus, from this kinetic of the fluorescence signal, it is possible to extract several parameters representing physiological processes. […] The relative variable fluorescence at 2 ms Vj is very sensitive to Diuron as it is proportional to reaction centers closed at 2 ms. […]

[3] = system: Algae culture CC125; assay: Oxygen concentration measurement with the nanofilament electrical detector in a microfluidic channel; assay type: cell-based, Chlamydomonas reinhardtii; conditions: 1 μM Diuron; CC125 5M cell/ml; -0.6V between working and reference electrode
Description: According to an experimental evaluation, in order to measure the oxygen level, the electrodes making up the electrical detector are integrated in a glass microfluidic channel, and aligned on an OLED. Algae culture CC125 (5M cell/ml concentration) is injected in the microfluidic channel, the oxygen measure being continuously taken through applying-0.6V between the working electrode and the reference electrode. A Diuron concentration of 1 uM is added to the algae culture before the injection into the chip and the measuring. Standard measures of 1 uM of pollutant were made in triplicate.
Oxygen variation of algae, which is the combination of both production and breathing of algae, can therefore be linked to the pollutant concentration contained in the analyte. In order to measure oxygen production, this detector is also composed of the same organic light source used by the fluorescence detector (OLED.
FIG. 22A refers to oxygen concentration levels measured with the electrical detector for 1 μM of Diuron and with a reference (that has not been exposed to Diuron).

## CN(C)C(=O)Nc1ccc(Cl)c(Cl)c1 [Diuron, 3(3,4-dichlorophenyl)-1,1-dimethylurea]
[1]; 30 min of light exposure
  lowest concentration tested that gave a significant difference with the control algae for the Finh parameter: 7.5 nM
[1]; Chlamydomonas reinhardtii, test apparatus, 30 min light exposure, 15 min dark adaptation, read-out: concentration of DCMU inhibiting 50% of the algae photochemistry (EC50), evaluated with F25m
  EC50: 11 nM
[2]
  EC50: 220 nM
[3]
  decrease in total oxygen production from algae: about 26%
